Experimental data from ChEMBL document CHEMBL3352111, “Cytotoxic activity of butane type of 1,7-seco-2,7'-cyclolignanes and apoptosis induction by Caspase 9 and 3” (Bioorg Med Chem Lett, 2014).
pIC50: −log10 of the molar value. Activity calls are given as the source filed them. No cut-off for these calls is given here.

What was measured:
[1] = Cytotoxicity against human HL60 cells after 48 hrs by WST8 assay; format: functional, cell-based; conditions: HL-60, 48 h
HeLa [2] = assay: Cytotoxicity against human HeLa cells after 48 hrs by WST8 assay; format: functional, cell-based
HeLa [3] = assay: Cytotoxicity against human HeLa cells assessed as inhibition of cell growth at 100 uM after 48 hrs by WST8 assay; format: functional; conditions: read-out: GI
[4] = Cytotoxicity against human HL60 cells assessed as inhibition of cell growth at 100 uM after 48 hrs by WST8 assay; format: functional; conditions: HL-60, 48 h, read-out: GI
HL-60 [5] = assay: Induction of apoptosis in human HL60 cells assessed as late apoptosis level at 0.2 uM after 24 hrs by Annexin V-PE and 7-AAD staining based flow cytometry (reference value: 3.3%); format: functional
HL-60 [6] = assay: Induction of apoptosis in human HL60 cells assessed as reduction in pro-caspase-9 level at 8 uM after 24 hrs by Western blotting method; format: functional, cell-based
HL-60 [7] = assay: Induction of apoptosis in human HL60 cells assessed as late apoptosis level at 8 uM after 24 hrs by Annexin V-PE and 7-AAD staining based flow cytometry (reference value: 3.2%); format: functional
HL-60 [8] = assay: Induction of apoptosis in human HL60 cells assessed as increase in caspase-9 level at 8 uM after 12 hrs by Western blotting method; format: functional, cell-based
HL-60 [9] = assay: Induction of apoptosis in human HL60 cells assessed as increase in caspase-3 level at 8 uM after 24 hrs by Western blotting method; format: functional, cell-based
HL-60 [10] = assay: Induction of apoptosis in human HL60 cells assessed as increase in DNA fragmentation at 25 uM after 4 hrs by ethidium bromide staining and gel electrophoresis based DNA ladder analysis; format: functional, cell-based
HL-60 [11] = assay: Induction of apoptosis in human HL60 cells assessed as early apoptosis level at 8 uM after 24 hrs by Annexin V-PE and 7-AAD staining based flow cytometry (reference value: 3.3%); format: functional

| Compound | pIC50 [1] | pIC50 (HeLa [2]) | inhibition of growth at 100 µM (HeLa [3]) [%] | inhibition of growth at 100 µM [4] [%] | other results |
| --- | --- | --- | --- | --- | --- |
| COC[C@H](C)[C@H](C)C(c1ccc(O)c(OC)c1)c1ccc(O)c(OC)c1 | 4.09 | 4.14 |  |  |  |
| COc1cc(C(c2ccc(O)c(OC)c2)[C@@H](C)[C@H](C)CF)ccc1O | 4.49 | 4.43 |  |  |  |
| COc1cc(C(c2ccc(O)c(OC)c2)[C@@H](CF)C(C)C)ccc1O | 4.41 | 4.39 |  |  |  |
| COC[C@@H](C)[C@@H](C)C(c1ccc(O)c(OC)c1)c1ccc(O)c(OC)c1 | 4.07 | < 4.00 | 34 |  |  |
| COC[C@H](C(C)C)C(c1ccc(O)c(OC)c1)c1ccc(O)c(OC)c1 | 4.14 | 4.12 |  |  |  |
| COc1ccc(C(c2ccc(OC)c(OC)c2)[C@@H](C)[C@@H](C)CO)cc1OC | < 4.00 | < 4.00 | 55 | 42 |  |
| COc1cc(C(c2ccc(O)c(OC)c2)[C@H](C)C(C)C)ccc1O | 4.77 | 4.80 |  |  |  |
| COc1cc(C(c2ccc(O)c(OC)c2)[C@H](CF)C(C)C)ccc1O | 4.72 | 4.72 |  |  |  |
| COc1cc(C(c2ccc(O)c(OC)c2)[C@@H](C)[C@@H](C)CF)ccc1O | 4.42 | 4.38 |  |  |  |
| COc1cc(C(c2ccc(O)c(OC)c2)[C@H](CC(C)C)C(C)C)ccc1O | 5.02 | 5.09 |  |  |  |
| COc1cc(C(c2ccc(O)c(OC)c2)[C@@H](C)C(C)C)ccc1O | 4.70 | 4.72 |  |  |  |
| COc1cc(C(c2ccc(O)c(OC)c2)[C@H](CO)C(C)C)ccc1O | < 4.00 | < 4.00 | 3 | 10 |  |
| CN[C@@H]1C[C@H]2O[C@@](C)([C@@H]1OC)n1c3ccccc3c3c4c(c5c6ccccc6n2c5c31)C(=O)NC4 [STAUROSPORINE] |  |  |  |  | Activity (HL-60 [5]): 17.4% |
| CCCCC[C@H](C(C)C)C(c1ccc(O)c(OC)c1)c1ccc(O)c(OC)c1 | 5.02 | 5.04 |  |  |  |
| COc1cc(C(c2ccc(O)c(OC)c2)[C@@H](CO)C(C)C)ccc1O | < 4.00 | < 4.00 | 2 | 18 |  |
| CC[C@H](C(C)C)C(c1ccc(O)c(OC)c1)c1ccc(O)c(OC)c1 | 4.80 | 5.01 |  |  |  |
| COc1ccc(C(c2ccc(OC)c(OC)c2)[C@@H](C)[C@H](C)CO)cc1OC | < 4.00 | < 4.00 | 0 | 0 |  |
| COC[C@@H](C)[C@H](C)C(c1ccc(O)c(OC)c1)c1ccc(O)c(OC)c1 | 4.14 | 4.24 |  |  |  |
| COc1cc(C(c2ccc(O)c(OC)c2)[C@H](C)[C@@H](C)CF)ccc1O | 4.35 | 4.47 |  |  |  |
| COc1cc(C(c2ccc(O)c(OC)c2)[C@@H](C)[C@H](C)CO)ccc1O | < 4.00 | < 4.00 | 7 | 0 |  |
| COc1cc(C(c2ccc(O)c(OC)c2)[C@H](C)[C@H](C)CO)ccc1O | < 4.00 | < 4.00 | 0 | 23 |  |
| COc1ccc(C(c2ccc(OC)c(OC)c2)[C@H](C)[C@H](C)CO)cc1OC | < 4.00 | < 4.00 | 13 | 28 |  |
| COC[C@H](C)[C@@H](C)C(c1ccc(O)c(OC)c1)c1ccc(O)c(OC)c1 | 4.17 | 4.11 |  |  |  |
| COc1cc(C(c2ccc(O)c(OC)c2)[C@H](C)[C@@H](C)CO)ccc1O | < 4.00 | < 4.00 | 7 | 7 |  |
| COc1cc(C(c2ccc(O)c(OC)c2)[C@H](C)[C@H](C)CF)ccc1O | 4.25 | 4.12 |  |  |  |
| COc1ccc(C(c2ccc(OC)c(OC)c2)[C@H](C)[C@@H](C)CO)cc1OC | 4.33 | 4.17 |  |  |  |
| COc1cc(C(c2ccc(O)c(OC)c2)[C@@H](C)[C@@H](C)CO)ccc1O | < 4.00 | < 4.00 | 8 | 3 |  |
| CCCCCCCC[C@H](C(C)C)C(c1ccc(O)c(OC)c1)c1ccc(O)c(OC)c1 | 5.43 | 5.51 |  |  | Activity (HL-60 [6]): Active; Activity (HL-60 [7]): 33.1%; Activity (HL-60 [8]): Active; Activity (HL-60 [9]): Active; Activity (HL-60 [10]): Active; Activity (HL-60 [11]): 13.5% |
| COC[C@@H](C(C)C)C(c1ccc(O)c(OC)c1)c1ccc(O)c(OC)c1 | 4.27 | 4.16 |  |  |  |
